Patent US10093675B2, “6,8-disubstituted-9-(heterocyclyl)purines, compositions containing these derivatives and their use in cosmetic and medicinal applications” (USTAV EXPERIMENTALNI BOTANIKY AV CR, V.V.I., priority 2014, dated 2018)

How the values were obtained:
[1] = test system: excised wheat leaf tips (Triticum aestivum cv. Hereward); assay: Senescence inhibition on winter wheat leaf segments (retention of chlorophyll); type: in vivo; conditions: 10^−4 mol/L; 96 hours in the dark; activity of kinetin set at 100%
Description: Seeds of winter wheat, Triticum aestivum cv. Hereward, were washed under running water for 24 hours and then sown on vermiculite soaked with Knop's solution. They were placed in the grown chamber at 25° C. with a 16/8 hours light period at […]. After 7 days, the first leaf was fully developed and the second leaf had started to grow. A tip section of the first leaf, approximately 35 mm long, was removed from 5 seedlings and trimmed slightly to a combined weight of 100 mg. The basal ends of the five leaf tips were placed in the wells of a microtiter polystyrene plate containing […] of a cytokinin solution each. The entire plate was inserted into a plastic box lined with paper tissues soaked in distilled water to prevent leaf sections from drying out. After 96 hours incubation in the dark at 25° C., the leaves were removed and chlorophyll extracted by heating at 80 C for 10 min in 5 ml of 80% ethanol (v/v). The sample volume was then restored to 5 ml by the addition of 80% ethanol (v/v). The absorbance of the extract was recorded at 665 nm. In addition, chlorophyll extracts from fresh leaves and leaf tips incubated in deionized water were measured. From the obtained data, the concentration with highest activity was selected for each compound tested. Relative activity of the compound at this concentration was calculated (see Table 6 below). The activity obtained for 10^−4 M kinetin (Kin) was set as 100%. The values shown are means of five replicates and the whole experiment was repeated twice.
The compounds to be tested were dissolved in dimethylsulfoxide (DMSO) and the solution brought up to 10^−3 M with distilled water. […] As summarized in Table 6 below, the presence of C-8 substitutent was beneficial and led to increase of antisenescent properties.

[2] = test system: human diploid fibroblasts (HDF cells; HDF25, HDF45, HDF80); assay: Inhibition of human cell aging: senescent cells by beta-galactosidase staining; type: cell-based; conditions: for SENESCENT CELLS (%) HDF25: human diploid fibroblasts passage 25, beta-galactosidase staining; for SENESCENT CELLS (%) HDF45: human diploid fibroblasts passage 45, beta-galactosidase staining; for SENESCENT CELLS (%) HDF80: human diploid fibroblasts passage 80, beta-galactosidase staining
Description: In this example, human diploid fibroblasts (HDF cells of various passage levels: passage 25—designated HDF25; passage 45—designated HDF45; passage 80—designated HDF80) were stained for beta-galactosidase activity. The medium used for the cell cultivation was removed the cells were washed twice in […], and fixed in 2-3 ml of fixing solution comprised of a 2% formaldehyde and 0.2% glutaraldehyde in PBS. The cells were incubated at room temperature for 5 minutes, and then washed twice with PBS. The cells were subsequently incubated at 37° C. […] In this experiment, senescent cells, but no other cells were stained blue due to the action of beta-galactosidase on the substrate.

[3] = test system: Salmonella typhimurium histidien auxotrophs TA98 and TA100; assay: Ames test; type: cell-based; conditions: 2.5 to 5000 μg/plate; presence and absence of Aroclor-induced rat liver S9
Description: A number of tests related to the safety of have been carried out using conventionally accepted protocols and procedures. The results of these studies are summarized herein. Tests were carried out using DMSO as solvent and dose levels of compound 21, 24, 26, 27, 39, 41, 45, 48, 50, 52, 53, 54, 55, 56, 63, 64, 66, 67, 68, 69, 70, 71, 72, 74, 76, 124, 125, 126, 127, 128, 129, 130, 145, 146, 147, 149, 150, 151, 208, 216, 218 a 243 at 2.5, 5.0, 15, 50, 500, 1500, and 5000 μg/plate based upon standard protocol and procedures (Ames et al., Mutation Research, 31, 347-364 (1975); Maron et al., Mutation Research, 113, 173-215 (1983)).

[4] = test system: cytokinin-dependent tobacco callus Nicotiana tabacum L. cv. Wisconsin 38; assay: Plant cell division: growth of cytokinin-dependent tobacco callus; type: cell-based; conditions: for Activity (%); (s.d.): relative activity at concentration with highest activity, 10^−6 M kinetin set at 100%; for Concentration with highest activity (mol/l): tobacco callus fresh weight increase after four weeks, tested 10^−8 M to 10^−4 M
Description: Cytokinin-dependent tobacco callus Nicotiana tabacum L. cv. Wisconsin 38 was maintained at 25° C. in darkness on modified MS medium, containing 4 μmol/l nicotinic acid, 2.4 μmol/l pyridoxine hydrochloride, 1.2 μmol/l thiamine, 26.6 μmol/l glycine, 1.37 μmol/l glutamine, 1.8 μmol/l myo-inositol, 30 g/l of sucrose, 8 g/l of agar, 5.37 μmol/l NAA and 0.5 μmol/l BAP. Subcultivation was carried out every three weeks. Fourteen days before the bioassay, the callus tissue was transferred to the media without BAP. Biological activity was determined from the increase in fresh callus weight after four weeks of cultivation. Five replicates were prepared for each cytokinin concentration and the entire test was repeated twice. From the obtained data, the concentration with highest activity was selected for each compound tested. Relative activity at this concentration was calculated (see Table 17 below). The activity obtained for 10^−6 M kinetin (Kin) was set as 100%.
The cytokinins to be tested were dissolved in dimethylsulfoxide (DMSO) and the solution brought up to 10^−3M with distilled water.

Row | SMILES | Activity (%) (s.d.), retention of chlorophyll [1] | SENESCENT CELLS (%) HDF25 [2] [%] | SENESCENT CELLS (%) HDF45 [2] [%] | SENESCENT CELLS (%) HDF80 [2] [%] | mutagenic response [3] | Activity (%); (s.d.) [4] | Concentration with highest activity (mol/l) [4]
1 | Fc1ccc(CNc2ncnc3c2nc(Cl)n3C2CCCCO2)cc1F (stereo not shown) [Compound 11] | 127 (±5) % |  |  |  |  |  | 
2 | COc1ccc(CNc2ncnc3c2nc(Cl)n3C2CCCCO2)cc1OC (stereo not shown) [Compound 12] | 140 (±7) % |  |  |  |  |  | 
3 | COc1ccc(CNc2ncnc3c2nc(Br)n3C2CCCCO2)cc1OC (stereo not shown) [Compound 41] | 133 (±7) % | 2 | 6 | 21 | no positive mutagenic responses |  | 
4 | Ic1nc2c(NCc3ccco3)ncnc2n1C1CCCCO1 (stereo not shown) [Compound 45, 8-Iodo-6-furfurylamino-9-(tetrahydropyran-2-yl)-9H-purine] | 112 (±4) % | 3 | 5 | 20 | no positive mutagenic responses |  | 
5 | C/C(=C\CNc1ncnc2c1nc(I)n2C1CCCCO1)CO (stereo not shown) [Compound 48] | 120 (±4) % | 2 | 4 | 21 | no positive mutagenic responses |  | 
6 | Fc1cccc(CNc2ncnc3c2nc(I)n3C2CCCCO2)c1 (stereo not shown) [Compound 50] | 121 (±4) % | 3 | 4 | 19 | no positive mutagenic responses |  | 
7 | COc1cccc(CNc2ncnc3c2nc(I)n3C2CCCCO2)c1 (stereo not shown) [Compound 52] | 120 (±3) % | 2 | 6 | 21 | no positive mutagenic responses |  | 
8 | Oc1cccc(CNc2ncnc3c2nc(I)n3C2CCCCO2)c1 (stereo not shown) [Compound 53] | 125 (±6) % | 2 | 5 | 21 | no positive mutagenic responses |  | 
9 | Oc1ccc(CNc2ncnc3c2nc(I)n3C2CCCCO2)cc1O (stereo not shown) [Compound 54] | 138 (±7) % | 3 | 5 | 20 | no positive mutagenic responses |  | 
10 | Fc1ccc(CNc2ncnc3c2nc(I)n3C2CCCCO2)cc1F (stereo not shown) [Compound 55] | 133 (±5) % | 3 | 4 | 18 | no positive mutagenic responses |  | 
11 | COc1ccc(CNc2ncnc3c2nc(I)n3C2CCCCO2)cc1OC (stereo not shown) [Compound 56] | 141 (±8) % | 3 | 5 | 21 | no positive mutagenic responses |  | 
12 | Clc1nc2c(NCc3ccco3)ncnc2n1C1CCCO1 (stereo not shown) [Compound 63] | 110 (±2) % | 2 | 4 | 19 | no positive mutagenic responses |  | 
13 | Oc1ccc(CNc2ncnc3c2nc(Cl)n3C2CCCO2)cc1O (stereo not shown) [Compound 66] | 132 (±5) % | 2 | 4 | 16 | no positive mutagenic responses |  | 
14 | Fc1ccc(CNc2ncnc3c2nc(Cl)n3C2CCCO2)cc1F (stereo not shown) [Compound 67] | 128 (±6) % | 4 | 6 | 18 | no positive mutagenic responses |  | 
15 | Oc1cccc(CNc2ncnc3c2nc(Cl)n3C2CCCO2)c1 (stereo not shown) [Compound 70] | 126 (±1) % | 2 | 5 | 18 | no positive mutagenic responses | 110 (±1) % | 10^−6-10^−4 mol/l
16 | Fc1cccc(CNc2ncnc3c2nc(Cl)n3C2CCCO2)c1 (stereo not shown) [Compound 71] | 119 (±3) % | 3 | 6 | 19 | no positive mutagenic responses | 116 (±2) % | 10^−6-10^−4 mol/l
17 | Brc1nc2c(NCc3ccco3)ncnc2n1C1CCCO1 (stereo not shown) [Compound 72] | 106 (±2) % | 3 | 4 | 17 | no positive mutagenic responses |  | 
18 | CC(C)=CCNc1ncnc2c1nc(Br)n2C1CCCO1 (stereo not shown) [Compound 75] |  |  |  |  |  | 119 (±4) % | 10^−6-10^−4 mol/l
19 | OCCNc1nc2c(NCc3ccco3)ncnc2n1C1CCCCO1 (stereo not shown) [Compound 243, 6-furfurylamino-8-(2-hydroxyethylamino)-9-(tetrahydropyran-2-yl)-9H-purine] |  |  |  |  | no positive mutagenic responses |  | 
20 | c1coc(CNc2ncnc3[nH]cnc23)c1 [kinetin, reference compound] | 100% | 3 | 5 | 38 |  |  | 
